Experiments:
Experiment in all cases: Test E pre-/postemergence herbicide test
annual bluegrass = type: in vivo, Poa annua
Excerpt: (§1) Seeds of plant species selected from bipinnate beggarticks (Bidens bipinnata L.), hairy beggarticks (Bidens radiata Thuill.), bermudagrass (Cynodon dactylon (L.) Pers.), Surinam grass (Urochloa decumbens (Staph) R. D. Webster, previously named Brachiaria decumbens Stapf), large crabgrass (Digitaria sanguinalis (L.) Scop.), green foxtail (Setaria viridis (L.) P. Beauv.), goosegrass (Eleusine indica (L.) Gaertn.), johnsongrass (Sorghum halepense (L.) Pers.), kochia (Kochia scoparia (L.) Schrad.), pitted morningglory (Ipomoea lacunosa L.), purple nutsedge (Cyperus rotundus L.), common ragweed (Ambrosia elatior L.), mustard (Brassica nigra (L.) W. D. J. Koch), guineagrass (Panicum maximum Jacq.), dallisgrass (Paspalum dilatatum Poir.), barnyardgrass (Echinochloa crus-galli (L). P. Beauv.), southern sandbur (Cenchrus echinatus L.), common sowthistle (Sonchus oleraceous L.), prickly sida (Sida spinosa L.), Italian ryegrass (Lolium multiflorum Lam.), common purslane (Portulaca oleracea L.), broadleaf signalgrass (Brachiaria platyphylla (Griseb.) Nash), common groundsel (Senecio vulgaris L.), common chickweed (Stellaria media (L.) Vill/Cyr.), tropical spiderwort (Commelina benghalensis L.), annual bluegrass (Poa annua L.), downy bromegrass (Bromus tectorum L.), itchgrass (Rottboellia cochinchinensis (L.) L.f.), quackgrass (Elytrigia repens (L.) Nevski), Canada horseweed (Erigeron Canadensis L.), field bindweed (Convolvulus arvensis L.), spotted spurge (Euphorbia maculata L.), common mallow (Malva sylvestris (=s silvestris) L.), and Russian thistle (Salsola kali L. ssp. Ruthenica (Iljin) Soo) were planted and treated preemergence with test chemicals formulated in a non-phytotoxic solvent mixture which included a surfactant.
(§2) At the same time, plants selected from these weed species were treated with postemergence applications of some of the test chemicals formulated in the same manner. Plants ranged in height from 2 to 18 cm (1- to 4-leaf stage) for postemergence treatments. Treated plants and controls were maintained in a greenhouse for 12 to 14 days, after which time all species were compared to controls and visually evaluated. Plant response ratings, summarized in Table E, are based on a scale of 0 to 100 where 0 is no effect and 100 is complete control. A dash (-) response means no test result.

pitted morningglory = type: in vivo, Ipomoea lacunosa
Excerpt: as §1, §2

large crabgrass = type: in vivo, Digitaria sanguinalis
Excerpt: as §1, §2

common sowthistle = type: in vivo, Sonchus oleraceous
Excerpt: as §1, §2

common mallow = type: in vivo, Malva sylvestris
Excerpt: as §1, §2

southern sandbur = type: in vivo, Cenchrus echinatus
Excerpt: as §1, §2

green foxtail = type: in vivo, Setaria viridis
Excerpt: as §1, §2

downy bromegrass = type: in vivo, Bromus tectorum
Excerpt: as §1, §2

dallisgrass = type: in vivo, Paspalum dilatatum
Excerpt: as §1, §2

[1] = Postemergence, 500 g ai/ha, scale 0 to 100
[2] = Postemergence, 250 g ai/ha, scale 0 to 100
[3] = Preemergence, 62 g ai/ha, scale 0 to 100
[4] = Preemergence, 125 g ai/ha, scale 0 to 100
[5] = Preemergence, 250 g ai/ha, scale 0 (no effect) to 100 (complete control)
[6] = Preemergence, 500 g ai/ha, scale 0 (no effect) to 100 (complete control)
[7] = postemergence, 125 g ai/ha, scale 0 to 100
[8] = postemergence, 62 g ai/ha, scale 0 to 100

With `CCn1nc(C(C)(C)C)cc1C(=O)Nc1cc(C(=O)N(C)C)ccn1` [Compound 156, 2-[[[3-(1,1-dimethylethyl)-1-ethyl-1H-pyrazol-5-yl]carbonyl]amino]-N,N-dimethyl-4-pyridinecarboxamide] the “Plant response rating, Bluegrass” value (annual bluegrass; [1]) was 98, the “Plant response rating, Bluegrass” value (annual bluegrass; [2]) was 98 and the “Plant response rating, Bluegrass” value (annual bluegrass; [3]) was 95. The “Plant response rating, Bluegrass” value (annual bluegrass; [4]) was 95, the “Plant response rating, Bluegrass” value (annual bluegrass; [5]) was 100 and the “Plant response rating, Bluegrass” value (annual bluegrass; [6]) was 100. For the same compound, the “Plant response rating, Bluegrass” value (annual bluegrass; [7]) was 95, the “Plant response rating, Bluegrass” value (annual bluegrass; [8]) was 90 and the “Plant response rating, Morningglory” value (pitted morningglory; [1]) was 90. For the same compound, the “Plant response rating, Morningglory” value (pitted morningglory; [2]) was 80, the “Plant response rating, Morningglory” value (pitted morningglory; [3]) was 30 and the “Plant response rating, Morningglory” value (pitted morningglory; [4]) was 100. For the same compound, the “Plant response rating, Morningglory” value (pitted morningglory; [5]) was 100, the “Plant response rating, Morningglory” value (pitted morningglory; [6]) was 100 and the “Plant response rating, Morningglory” value (pitted morningglory; [7]) was 65. The “Plant response rating, Morningglory” value (pitted morningglory; [8]) was 10, the “Plant response rating, Crabgrass, Large” value (large crabgrass; [1]) was 98 and the “Plant response rating, Crabgrass, Large” value (large crabgrass; [2]) was 95. For the same compound, the “Plant response rating, Crabgrass, Large” value (large crabgrass; [4]) was 90, the “Plant response rating, Crabgrass, Large” value (large crabgrass; [5]) was 95 and the “Plant response rating, Crabgrass, Large” value (large crabgrass; [6]) was 95. For the same compound, the “Plant response rating, Crabgrass, Large” value (large crabgrass; [7]) was 80, the “Plant response rating, Crabgrass, Large” value (large crabgrass; [8]) was 35 and the “Plant response rating, Sowthistle” value (common sowthistle; [1]) was 100. The “Plant response rating, Sowthistle” value (common sowthistle; [2]) was 100, the “Plant response rating, Sowthistle” value (common sowthistle; [3]) was 60 and the “Plant response rating, Sowthistle” value (common sowthistle; [4]) was 100. The “Plant response rating, Sowthistle” value (common sowthistle; [5]) was 100, the “Plant response rating, Sowthistle” value (common sowthistle; [6]) was 100 and the “Plant response rating, Sowthistle” value (common sowthistle; [7]) was 90. For the same compound, the “Plant response rating, Sowthistle” value (common sowthistle; [8]) was 90, the “Plant response rating, Mallow” value (common mallow; [1]) was 100 and the “Plant response rating, Mallow” value (common mallow; [2]) was 95. The “Plant response rating, Mallow” value (common mallow; [3]) was 70, the “Plant response rating, Mallow” value (common mallow; [4]) was 100 and the “Plant response rating, Mallow” value (common mallow; [5]) was 100. For the same compound, the “Plant response rating, Mallow” value (common mallow; [6]) was 100, the “Plant response rating, Mallow” value (common mallow; [7]) was 90 and the “Plant response rating, Mallow” value (common mallow; [8]) was 80. For the same compound, the “Plant response rating, Sandbur” value (southern sandbur; [1]) was 98, the “Plant response rating, Sandbur” value (southern sandbur; [2]) was 80 and the “Plant response rating, Sandbur” value (southern sandbur; [3]) was 50. The “Plant response rating, Sandbur” value (southern sandbur; [4]) was 60, the “Plant response rating, Sandbur” value (southern sandbur; [5]) was 75 and the “Plant response rating, Sandbur” value (southern sandbur; [6]) was 80. For the same compound, the “Plant response rating, Sandbur” value (southern sandbur; [7]) was 75, the “Plant response rating, Sandbur” value (southern sandbur; [8]) was 0 and the “Plant response rating, Foxtail, Green” value (green foxtail; [1]) was 100. For the same compound, the “Plant response rating, Foxtail, Green” value (green foxtail; [2]) was 100, the “Plant response rating, Foxtail, Green” value (green foxtail; [3]) was 100 and the “Plant response rating, Foxtail, Green” value (green foxtail; [4]) was 100. For the same compound, the “Plant response rating, Foxtail, Green” value (green foxtail; [5]) was 100, the “Plant response rating, Foxtail, Green” value (green foxtail; [6]) was 100 and the “Plant response rating, Foxtail, Green” value (green foxtail; [7]) was 95. The “Plant response rating, Foxtail, Green” value (green foxtail; [8]) was 75, the “Plant response rating, Bromegrass, Downy” value (downy bromegrass; [1]) was 100 and the “Plant response rating, Bromegrass, Downy” value (downy bromegrass; [2]) was 100. For the same compound, the “Plant response rating, Bromegrass, Downy” value (downy bromegrass; [3]) was 60, the “Plant response rating, Bromegrass, Downy” value (downy bromegrass; [4]) was 80 and the “Plant response rating, Bromegrass, Downy” value (downy bromegrass; [5]) was 100. For the same compound, the “Plant response rating, Bromegrass, Downy” value (downy bromegrass; [6]) was 100, the “Plant response rating, Bromegrass, Downy” value (downy bromegrass; [7]) was 100 and the “Plant response rating, Bromegrass, Downy” value (downy bromegrass; [8]) was 90. The “Plant response rating, Dallisgrass” value (dallisgrass; [1]) was 90, the “Plant response rating, Dallisgrass” value (dallisgrass; [2]) was 90 and the “Plant response rating, Dallisgrass” value (dallisgrass; [3]) was 90. The “Plant response rating, Dallisgrass” value (dallisgrass; [4]) was 95, the “Plant response rating, Dallisgrass” value (dallisgrass; [5]) was 100 and the “Plant response rating, Dallisgrass” value (dallisgrass; [6]) was 100. For the same compound, the “Plant response rating, Dallisgrass” value (dallisgrass; [7]) was 85 and the “Plant response rating, Dallisgrass” value (dallisgrass; [8]) was 75.
In the case of `CCc1nn(C(C)C)nc1C(=O)Nc1cccc(C(=O)N(C)CC)c1` [Compound 386], the “Plant response rating, Bluegrass” value (annual bluegrass; [4]) is reported as 60, the “Plant response rating, Bluegrass” value (annual bluegrass; [5]) is reported as 95 and the “Plant response rating, Morningglory” value (pitted morningglory; [4]) is reported as 20. The “Plant response rating, Morningglory” value (pitted morningglory; [5]) was 40, the “Plant response rating, Crabgrass, Large” value (large crabgrass; [4]) was 95 and the “Plant response rating, Crabgrass, Large” value (large crabgrass; [5]) was 95. For the same compound, the “Plant response rating, Sowthistle” value (common sowthistle; [4]) was 60, the “Plant response rating, Sowthistle” value (common sowthistle; [5]) was 100 and the “Plant response rating, Mallow” value (common mallow; [4]) was 60. For the same compound, the “Plant response rating, Mallow” value (common mallow; [5]) was 70, the “Plant response rating, Sandbur” value (southern sandbur; [4]) was 40 and the “Plant response rating, Sandbur” value (southern sandbur; [5]) was 40. The “Plant response rating, Foxtail, Green” value (green foxtail; [4]) was 60, the “Plant response rating, Foxtail, Green” value (green foxtail; [5]) was 95 and the “Plant response rating, Bromegrass, Downy” value (downy bromegrass; [4]) was 10. For the same compound, the “Plant response rating, Bromegrass, Downy” value (downy bromegrass; [5]) was 40, the “Plant response rating, Dallisgrass” value (dallisgrass; [4]) was 70 and the “Plant response rating, Dallisgrass” value (dallisgrass; [5]) was 75.

— patent publication US20060069132A1, “Azolecarboxamide herbicides” (priority 2004, published 2006)
